Measurements: US20160009693A1, “HERBICIDAL COMPOUNDS” (SYNGENTA LIMITED, priority 2013, published 2016)

Experiments:
Type in all cases: in vivo
Conditions in all cases: applied at 1000 g/h, evaluated after 13 days
[1] = tested on: Amaranthus retoflexus (AMARE); assay: Herbicidal glasshouse test, post-emergence, AMARE
Summary of the method: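 This post-emergence glasshouse test used AMARE plants raised in standard soil for 8 days under controlled conditions (24/16° C. day/night, 14 hours light, 65% humidity). Foliage was sprayed with formulated compound in acetone/water (50:50) containing 0.5% Tween 20. Plants were then watered twice daily, and after 13 days percentage damage was rated on a five point scale.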

Setaria faberi (SETFA) [2] = assay: Herbicidal glasshouse test, pre-emergence, SETFA
[3] = tested on: Echinochloa crus-galli (ECHCG); assay: Herbicidal glasshouse test, post-emergence, ECHCG
Summary of the method: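 In this post-emergence glasshouse test, barnyard grass (ECHCG) was cultivated for 8 days under controlled conditions (24/16° C. day/night, 14 hours light, 65% humidity). It was then sprayed with an aqueous solution of the technical compound in acetone / water (50:50) with 0.5% Tween 20. Plants were kept under the same conditions and watered twice daily. After 13 days, percentage damage was rated on a five point scale (5=80-100%; 1=0-19%).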

[4] = tested on: Amaranthus retoflexus (AMARE); assay: Herbicidal glasshouse test, pre-emergence, AMARE
Summary of the method: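 This pre-emergence glasshouse herbicide test used Amaranthus retoflexus sown in standard soil. After one day of cultivation, an aqueous spray made from the technical ingredient in 50:50 acetone/water with 0.5% Tween 20 was applied. Pots stayed at 24/16° C., 14 hours light, 65% humidity, with twice-daily watering. Damage was rated on a five point scale (1=0-19% up to 5=80-100%).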

Solanum nigrum (SOLNI) [5] = assay: Herbicidal glasshouse test, pre-emergence, SOLNI
Summary of the method: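 This pre-emergence glasshouse herbicide test used Solanum nigrum sown in standard soil. One day after sowing, pots were sprayed with the compound in acetone/water (50:50) with 0.5% Tween 20. They were then grown at 24/16° C., with 14 hours light and 65% humidity, and watered twice daily. Percentage damage was scored after 13 days on a five point scale, where 5=80-100% and 1=0-19%.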

[6] = tested on: Ipomoea hederacea (IPOHE); assay: Herbicidal glasshouse test, post-emergence, IPOHE
[7] = tested on: Echinochloa crus-galli (ECHCG); assay: Herbicidal glasshouse test, pre-emergence, ECHCG
Summary of the method: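 In this pre-emergence glasshouse test, ECHCG seeds sown in pots of standard soil were sprayed one day after sowing with the test material in acetone/water (50:50) containing 0.5% Tween 20. Plants were kept at 24/16° C., 14 hours light, 65% humidity, and watered twice daily. Percentage damage was rated after 13 days on a 1–5 scale.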

Solanum nigrum (SOLNI) [8] = assay: Herbicidal glasshouse test, post-emergence, SOLNI
[9] = tested on: Alopecurus myosuroides (ALOMY); assay: Herbicidal glasshouse test, post-emergence, ALOMY
[10] = tested on: Alopecurus myosuroides (ALOMY); assay: Herbicidal glasshouse test, pre-emergence, ALOMY
[11] = tested on: Ipomoea hederacea (IPOHE); assay: Herbicidal glasshouse test, pre-emergence, IPOHE
Setaria faberi (SETFA) [12] = assay: Herbicidal glasshouse test, post-emergence, SETFA
Summary of the method: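 This post-emergence glasshouse herbicide test used potted Setaria faberi. Plants were cultivated for 8 days under controlled conditions (24/16° C. day/night, 14 hours light, 65% humidity) and then treated with an aqueous spray made from an acetone/water (50:50) solution containing 0.5% Tween 20. After 13 days of further growth with twice-daily watering, damage was rated on a five point scale (5=80-100%; 1=0-19%).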

SMILES | POST Application AMARE, percentage damage (five point scale) [1] | PRE Application SETFA, percentage damage (five point scale) (Setaria faberi (SETFA) [2]) | POST Application ECHCG, percentage damage (five point scale) [3] | PRE Application AMARE, percentage damage (five point scale) [4] | PRE Application SOLNI, percentage damage (five point scale) (Solanum nigrum (SOLNI) [5]) | POST Application IPOHE, percentage damage (five point scale) [6] | PRE Application ECHCG, percentage damage (five point scale) [7] | POST Application SOLNI, percentage damage (five point scale) (Solanum nigrum (SOLNI) [8]) | POST Application ALOMY, percentage damage (five point scale) [9] | PRE Application ALOMY, percentage damage (five point scale) [10] | PRE Application IPOHE, percentage damage (five point scale) [11] | POST Application SETFA, percentage damage (five point scale) (Setaria faberi (SETFA) [12])
Cc1ccccc1-n1c(=O)c(C(=O)Nc2nnnn2C)nn(C)c1=O [Compound 1.018] | 5 (5=80-100%) | 5 (5=80-100%) | 5 (5=80-100%) | 5 (5=80-100%) | 5 (5=80-100%) | 5 (5=80-100%) | 5 (5=80-100%) | 5 (5=80-100%) | 5 (5=80-100%) | 5 (5=80-100%) | 5 (5=80-100%) | 5 (5=80-100%)
Cn1ncnc1OC(=O)c1cn(C)c(=O)n(-c2cccc(F)c2)c1=O [Compound 2.001] | 4 (4=60-79%) | 1 (1=0-19%) | 1 (1=0-19%) | 1 (1=0-19%) | 1 (1=0-19%) | 1 (1=0-19%) | 1 (1=0-19%) | 4 (4=60-79%) | 1 (1=0-19%) | 1 (1=0-19%) | 1 (1=0-19%) | 1 (1=0-19%)
Cn1ncnc1NC(=O)c1nn(C)c(=O)n(-c2ccccc2)c1=O [Compound 5.001] | 5 (5=80-100%) | 1 (1=0-19%) | 5 (5=80-100%) | 5 (5=80-100%) | 5 (5=80-100%) | 5 (5=80-100%) | 1 (1=0-19%) | 5 (5=80-100%) | 5 (5=80-100%) | 1 (1=0-19%) | 4 (4=60-79%) | 5 (5=80-100%)
C#CCn1c(=O)c(C(=O)Nc2nnnn2C)nn(C)c1=O [Compound 1.089] | 5 (5=80-100%) | 5 (5=80-100%) | 5 (5=80-100%) | 5 (5=80-100%) | 5 (5=80-100%) | 5 (5=80-100%) | 5 (5=80-100%) | 5 (5=80-100%) | 5 (5=80-100%) | 5 (5=80-100%) | 5 (5=80-100%) | 5 (5=80-100%)
Cn1nnnc1NC(=O)c1nn(C)c(=O)n(Cc2cc(F)ccc2F)c1=O [Compound 1.061] | 5 (5=80-100%) | 5 (5=80-100%) | 5 (5=80-100%) | 5 (5=80-100%) | 5 (5=80-100%) | 5 (5=80-100%) | 5 (5=80-100%) | 5 (5=80-100%) | 5 (5=80-100%) | 5 (5=80-100%) | 5 (5=80-100%) | 5 (5=80-100%)
